# Legend:
# Cannabinoid receptor 2 = Cannabinoid receptor 2 (Homo sapiens, UniProt P34972); assay: Displacement of [3H]CP-55940 from human recombinant CB2 receptor
# Cannabinoid receptor 1 [1] = biological target: T1, Cannabinoid receptor 1 (Homo sapiens, UniProt P21554); assay: Displacement of [3H]CP-55940 from human recombinant CB1 receptor
# Cannabinoid receptor 1 [2] = biological target: T1, Cannabinoid receptor 1; assay: Displacement of [3H]CP-55940 from human recombinant CB1 receptor in presence of hydrolase inhibitor PMSF
# [3] = biological target: T2, Fatty-acid amide hydrolase 1 (Rattus norvegicus, UniProt P97612); assay: Inhibitory activity against rat brain FAAH by [14C]anandamide hydrolysis
# T2 sequence (P97612 whole entry): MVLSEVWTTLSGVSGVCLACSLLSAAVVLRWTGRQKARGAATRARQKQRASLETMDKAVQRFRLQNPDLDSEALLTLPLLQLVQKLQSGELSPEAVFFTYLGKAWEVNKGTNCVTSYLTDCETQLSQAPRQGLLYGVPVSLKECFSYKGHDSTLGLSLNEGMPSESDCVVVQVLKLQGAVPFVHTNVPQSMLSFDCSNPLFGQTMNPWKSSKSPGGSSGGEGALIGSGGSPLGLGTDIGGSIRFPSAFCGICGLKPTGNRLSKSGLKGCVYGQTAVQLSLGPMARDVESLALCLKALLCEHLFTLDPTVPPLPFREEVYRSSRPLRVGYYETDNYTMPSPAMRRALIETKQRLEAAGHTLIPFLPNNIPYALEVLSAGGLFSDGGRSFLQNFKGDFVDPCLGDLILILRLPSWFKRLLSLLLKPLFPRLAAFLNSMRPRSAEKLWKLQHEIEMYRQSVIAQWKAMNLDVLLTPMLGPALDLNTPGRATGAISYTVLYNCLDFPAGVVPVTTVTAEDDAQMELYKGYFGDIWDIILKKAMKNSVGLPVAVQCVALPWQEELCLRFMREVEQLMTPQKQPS
# T1 sequence (P21554 whole entry): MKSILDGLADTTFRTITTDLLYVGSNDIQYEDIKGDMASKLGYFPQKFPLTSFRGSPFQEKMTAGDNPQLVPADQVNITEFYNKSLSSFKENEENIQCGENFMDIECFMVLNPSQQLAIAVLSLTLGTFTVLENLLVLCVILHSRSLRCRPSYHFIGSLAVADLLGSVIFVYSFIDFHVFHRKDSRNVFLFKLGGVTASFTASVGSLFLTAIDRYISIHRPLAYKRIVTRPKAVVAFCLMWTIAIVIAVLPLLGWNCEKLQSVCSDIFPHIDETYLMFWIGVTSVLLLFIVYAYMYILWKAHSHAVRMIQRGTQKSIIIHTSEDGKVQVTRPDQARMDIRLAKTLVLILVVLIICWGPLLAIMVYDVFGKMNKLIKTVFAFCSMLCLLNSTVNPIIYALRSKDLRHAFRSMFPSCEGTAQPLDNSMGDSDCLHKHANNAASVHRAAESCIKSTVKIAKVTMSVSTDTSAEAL
# Chain of Cannabinoid receptor 2 (P34972 whole entry): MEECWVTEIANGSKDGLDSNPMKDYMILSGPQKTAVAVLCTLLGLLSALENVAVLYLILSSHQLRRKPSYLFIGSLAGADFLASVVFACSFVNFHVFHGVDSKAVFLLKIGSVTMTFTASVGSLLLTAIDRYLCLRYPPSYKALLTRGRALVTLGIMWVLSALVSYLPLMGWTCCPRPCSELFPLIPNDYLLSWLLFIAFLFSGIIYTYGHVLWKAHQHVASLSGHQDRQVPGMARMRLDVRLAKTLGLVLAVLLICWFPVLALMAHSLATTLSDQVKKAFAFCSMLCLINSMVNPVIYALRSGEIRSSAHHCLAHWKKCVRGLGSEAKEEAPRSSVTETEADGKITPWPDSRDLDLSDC
Compound,Ki (Cannabinoid receptor 2) [µM],Ki (Cannabinoid receptor 1 [1]) [µM],Ki (Cannabinoid receptor 1 [2]) [µM],IC50 [3] [µM]
CCCCCCCC/C=C\CCCCCCCCCCCC(=O)Nc1ccc(N2CCOCC2)cc1,> 10,6.4,,
C=CCCCCCCCCC(=O)Nc1ccc(N2CCOCC2)cc1,> 10,> 10,,
CCCCCCCC/C=C/C(=O)NCCc1ccc(OC)cc1OC,> 10,> 10,,
CCCCCCCC/C=C\CCCCCCCC(=O)NCc1ccc(OC)cc1,> 10,0.5,0.6,> 25
CCCCC/C=C\C/C=C\C/C=C\C/C=C\CCCC(=O)NCCc1ccc(OC)cc1OC,4,0.5,,
CCCCCCCC/C=C\CCCCCCCCCCCC(=O)Nc1ccc(OC)cc1,> 10,> 10,,
CCCCCCCC/C=C\CCCCCCCC(=O)Nc1ccc(N2CCOCC2)cc1,> 10,> 10,,
C=CCCCCCCCCC(=O)NCCc1cc(OC)cc(OC)c1,> 10,> 10,,
CCCCCCCC/C=C/C(=O)Nc1ccc(OC)cc1,2.5,,,
C=CCCCCCCCCC(=O)NCc1ccc(OC)cc1,> 10,> 10,,
CCCCC/C=C\C/C=C\C/C=C\C/C=C\CCCC(=O)Nc1ccc(OC)cc1,4,0.5,,
CCCCCCCC/C=C/C(=O)NCCc1ccc(OC)cc1,5.1,,,
C=CCCCCCCCCC(=O)Nc1ccc(OC)cc1,> 10,> 10,,
C=CCCCCCCCCC(=O)NCCc1ccc(OC)cc1OC,> 10,> 10,,
CCCCCCCC/C=C\CCCCCCCCCCCC(=O)NCCc1ccc(OC)cc1,> 10,> 10,,
CCCCCCCC/C=C/C(=O)NCCc1cc(OC)cc(OC)c1,5.2,2.8,,
CCCCC/C=C\C/C=C\C/C=C\C/C=C\CCCC(=O)NCc1ccc(OC)cc1,4.5,0.6,,
CCCCC/C=C\C/C=C\C/C=C\C/C=C\CCCC(=O)Nc1ccc(O)cc1,,1.76,,

Compound,Ki (Cannabinoid receptor 2) [µM],Ki (Cannabinoid receptor 1 [1]) [µM],Ki (Cannabinoid receptor 1 [2]) [µM],IC50 [3] [µM]
CCCCCCCC/C=C\CCCCCCCCCCCC(=O)NCCc1cc(OC)cc(OC)c1,> 10,5.4,,
CCCCCCCC/C=C\CCCCCCCCCCCC(=O)NCc1ccc(OC)cc1,> 10,> 10,,
CCCCC/C=C\C/C=C\C/C=C\C/C=C\CCCC(=O)NCCc1cc(OC)cc(OC)c1,> 10,> 10,,
CCCCC/C=C\C/C=C\C/C=C\C/C=C\CCCC(=O)NCCc1ccc(OC)cc1,> 10,2.4,,
CCCCC/C=C\C/C=C\C/C=C\C/C=C\CCCC(=O)N1CCN(c2ccc(Cl)cc2)CC1,> 10,0.6,,
CCCCCCCC/C=C\CCCCCCCC(=O)Nc1ccc(OC)cc1,> 10,1.6,1.5,> 25
CCCCCCCC/C=C/C(=O)Nc1ccc(N2CCOCC2)cc1,> 10,> 10,,
CCCCC/C=C\C/C=C\C/C=C\C/C=C\CCCC(=O)Nc1ccc(N2CCOCC2)cc1,4.3,0.15,0.15,> 25
CCCCCCCC/C=C/C(=O)NCc1ccc(OC)cc1,> 10,> 10,,
CCCCCCCC/C=C\CCCCCCCCCCCC(=O)NCCc1ccc(OC)cc1OC,> 10,3.7,,
C=CCCCCCCCCC(=O)NCCc1ccc(OC)cc1,> 10,> 10,,
CCCCC/C=C\C/C=C\C/C=C\C/C=C\CCCC(=O)N1CCN(c2ccc(C)c(C)c2)CC1,4.2,0.4,,
CCCCCCCC/C=C\CCCCCCCC(=O)NCCc1cc(OC)cc(OC)c1,> 10,1.3,1,> 25
CCCCC/C=C\C/C=C\C/C=C\C/C=C\CCCC(=O)NCc1ccc(OC)cc1OC,4,0.2,0.2,> 25
CCCCC/C=C\C/C=C\C/C=C\C/C=C\CCCC(=O)N1CCN(c2ccc(F)cc2)CC1,5.1,0.3,0.3,> 25
CCCCC/C=C\C/C=C\C/C=C\C/C=C\CCCC(=O)NCc1cc(OC)ccc1OC,4.1,0.5,,
CCCCCCCC/C=C\CCCCCCCC(=O)NCCc1ccc(OC)cc1,> 10,0.4,0.3,> 25
CCCCCCCC/C=C\CCCCCCCC(=O)NCCc1ccc(OC)cc1OC,> 10,0.8,0.6,> 25
